Drawing on PubChem BioAssay (NCI), this text covers GI50 and TGI for 11 compounds.

Test systems include HL-60(TB) leukemia; IGROV1 ovarian; RXF 393 renal; MDA-MB-435; MCF7 breast; HOP-62 NSCLC; HOP-92 NSCLC; LOX IMVI melanoma; M19-MEL melanoma; DLD-1 colon.
Experiment in all cases: NCI anticancer screen, dose series, 48 h

Several values for one entry are separate records, joined by “and”; a condition that tells them apart may be missing. Equal entries are not always repeated.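 Protocol summary: plate cells (96-well), add compound at 5 concentrations, incubate 48 h, interpolate endpoints linearly. The concentration for 50% growth inhibition is given as GI50. TGI is the concentration that stops growth completely.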

Take `Nc1nc(N)c(N=O)c(OCC2CCCCC2)n1`: the GI50 in the test with HL-60(TB) leukemia was 10.7 µM; with IGROV1 ovarian, 3.69 µM; in the test with RXF 393 renal it was 8.04 µM; with MDA-MB-435 it was 12.8 µM; in the test on MCF7 breast, 3.46 µM; in the test with HOP-92 NSCLC, 2.25 µM. Further, the GI50 in the test on LOX IMVI melanoma is 4.77 µM. Also, the TGI in the test on HL-60(TB) leukemia was 53.8 µM and 58.9 µM; in the test with IGROV1 ovarian, 24.1 µM and 24.5 µM; in the test with RXF 393 renal, 42.3 µM and 48.1 µM; in the test with MDA-MB-435, more than 85.3 µM; with MCF7 breast, more than 100 µM; in the test with HOP-62 NSCLC, > 100 µM and 76.5 µM. The TGI is 8.41 µM and 59.2 µM in the test on HOP-92 NSCLC; more than 100 µM in the test with LOX IMVI melanoma.
`O=C(OCCBr)c1ccc(Cl)c([N+](=O)[O-])c1`: the GI50 was 15.7 µM in the test on HL-60(TB) leukemia; 16.5 µM in the test on IGROV1 ovarian; 15.5 µM in the test on RXF 393 renal; 15.5 µM in the test on MDA-MB-435; 2.51 µM in the test with MCF7 breast; 1.91 µM in the test on HOP-62 NSCLC. In addition, the GI50 in the test with HOP-92 NSCLC is 16 µM; in the test on LOX IMVI melanoma it was 10.2 µM. Besides, the TGI is 42.6 µM with HL-60(TB) leukemia; 37.6 µM with IGROV1 ovarian; 29.9 µM in the test with RXF 393 renal; 30.9 µM in the test on MDA-MB-435; 7.5 µM in the test on MCF7 breast; 3.63 µM with HOP-62 NSCLC. In addition, the TGI in the test on HOP-92 NSCLC is 33.2 µM; in the test on LOX IMVI melanoma, 26 µM.
Consider `CCCCN(CCCC)c1ccc(C(=NC(C)CCCN(CC)CC)c2ccc(N(C)C)cc2)cc1` (centres undefined), for which the GI50 with HL-60(TB) leukemia was 1.01 µM; in the test on IGROV1 ovarian, 0.897 µM; in the test with RXF 393 renal, 0.73 µM; with MDA-MB-435, 0.783 µM; in the test with MCF7 breast it was 0.836 µM; in the test with HOP-62 NSCLC it was 0.829 µM. Further, the results for the GI50 with HOP-92 NSCLC and in the test on LOX IMVI melanoma were 0.609 µM and 0.775 µM, respectively. Moreover, the TGI in the test on HL-60(TB) leukemia was determined as 2.03 µM; in the test on IGROV1 ovarian, 1.95 µM; with RXF 393 renal, 1.46 µM; in the test with MDA-MB-435, 1.57 µM; with MCF7 breast it was 1.95 µM; in the test with HOP-62 NSCLC, 1.63 µM. In addition, the TGI in the test with HOP-92 NSCLC came to 1.71 µM; in the test with LOX IMVI melanoma, 1.46 µM.
As to `C=CCNC(=O)NCCCC(NC(C)=O)C(=O)NCc1ccccc1` (centres undefined), the TGI in the test with HL-60(TB) leukemia, in the test on IGROV1 ovarian, with RXF 393 renal, in the test on M19-MEL melanoma, in the test on HOP-62 NSCLC and in the test with HOP-92 NSCLC was more than 100 µM throughout. This compound had a TGI in the test with LOX IMVI melanoma of more than 100 µM.
With `O=C(CCCSc1nc(-c2ccccc2)cc(-c2ccc(Cl)cc2)n1)NO`, the GI50 in the test with HL-60(TB) leukemia was 2.35 µM; with IGROV1 ovarian, 2.08 µM; in the test with RXF 393 renal, 0.445 µM; in the test with MDA-MB-435, 3.11 µM; in the test with MCF7 breast, 2.29 µM; in the test with HOP-62 NSCLC, 1.04 µM. Also, the GI50 was 2.29 µM with HOP-92 NSCLC and 0.414 µM in the test on LOX IMVI melanoma. The TGI stood at 9.26 µM in the test with HL-60(TB) leukemia; 11.7 µM with IGROV1 ovarian; 2.55 µM with RXF 393 renal; 14.8 µM in the test with MDA-MB-435; 12.4 µM with MCF7 breast; 17.4 µM in the test on HOP-62 NSCLC. Besides, the TGI in the test on HOP-92 NSCLC came to 8.26 µM; in the test on LOX IMVI melanoma it was 1.87 µM.
As for `CCCCNC(=O)NS(=O)(=O)c1ccc(N2N=C(c3cc(C)ccc3C)CC2c2cc(OC)c(OC)c(OC)c2)cc1` (centres undefined), the GI50 is 2.87 µM with HL-60(TB) leukemia; 3.19 µM in the test with IGROV1 ovarian; 2.61 µM with RXF 393 renal; 1.75 µM with MDA-MB-435; 2.06 µM with MCF7 breast; 3.15 µM with HOP-62 NSCLC. Also, the GI50 in the test on HOP-92 NSCLC is 1.27 µM; with LOX IMVI melanoma it was 2.24 µM. Also, the TGI was found to be 7.62 µM in the test with HL-60(TB) leukemia; 9.96 µM in the test with IGROV1 ovarian; 6.97 µM in the test with RXF 393 renal; 4.24 µM with MDA-MB-435; 5.58 µM in the test on MCF7 breast; 10.2 µM with HOP-62 NSCLC. The results for the TGI in the test on HOP-92 NSCLC and with LOX IMVI melanoma were 4.63 µM and 4.75 µM, respectively.
Regarding `COc1cc(C(=O)/C=C/c2cccnc2Nc2ccccc2)cc(OC)c1OC`, the GI50 with HL-60(TB) leukemia is 1.52 µM; in the test on IGROV1 ovarian, 2.37 µM; in the test with RXF 393 renal, 1.12 µM; in the test with MDA-MB-435 it was 0.637 µM; in the test on MCF7 breast, 0.357 µM; in the test with HOP-62 NSCLC, 0.657 µM. Further, the GI50 in the test with HOP-92 NSCLC is 0.392 µM; with LOX IMVI melanoma, 0.499 µM. The TGI in the test with HL-60(TB) leukemia was 4.98 µM; in the test on IGROV1 ovarian it was 5.3 µM; in the test on RXF 393 renal, 2.37 µM; with MDA-MB-435, 2.08 µM; with MCF7 breast, 1.64 µM; in the test with HOP-62 NSCLC, 1.88 µM. In addition, the TGI amounted to 2.07 µM in the test on HOP-92 NSCLC and 1.82 µM with LOX IMVI melanoma.
Take `c1ccc(CSc2nnc3c4ccccc4c4ccccc4c3n2)cc1`: the TGI in the test with HL-60(TB) leukemia was more than 100 µM; in the test on IGROV1 ovarian it was more than 46.6 µM; in the test with RXF 393 renal it was more than 79.5 µM; in the test on MDA-MB-435, more than 100 µM; in the test with MCF7 breast it was more than 100 µM; in the test on HOP-62 NSCLC, 75.6 µM. Moreover, the TGI is 59.7 µM with HOP-92 NSCLC and more than 100 µM in the test with LOX IMVI melanoma.
Consider `COC(=O)c1cc(-c2cccn2C)c2c(c1C(=O)OC)c1ccccc1n2C`, for which the TGI in the test on HL-60(TB) leukemia, with IGROV1 ovarian, in the test on RXF 393 renal, in the test with HOP-92 NSCLC, in the test on DLD-1 colon and with LOX IMVI melanoma was more than 100 µM each time.
Regarding `O=C(c1cccnc1)c1cc(-c2ccccn2)c(=O)n2ccccc12`, the GI50 in the test with HL-60(TB) leukemia, in the test with IGROV1 ovarian, in the test with RXF 393 renal, with MDA-MB-435, with MCF7 breast and in the test with HOP-62 NSCLC was more than 100 µM throughout. Moreover, the GI50 in the test on HOP-92 NSCLC and in the test on LOX IMVI melanoma was more than 100 µM throughout. Besides, the TGI in the test on HL-60(TB) leukemia, with IGROV1 ovarian, in the test with RXF 393 renal, in the test with MDA-MB-435, in the test on MCF7 breast and with HOP-62 NSCLC was more than 100 µM in each case. Further, the TGI in the test on HOP-92 NSCLC and in the test on LOX IMVI melanoma was more than 100 µM each time.
`C=CCC(OCCOCC)c1cc(OCCOCC)ccc1OC` (centres undefined): the TGI in the test on HL-60(TB) leukemia, in the test on IGROV1 ovarian, in the test with RXF 393 renal, in the test on M19-MEL melanoma, with HOP-62 NSCLC and with HOP-92 NSCLC was more than 100 µM each time. In addition, the TGI in the test on LOX IMVI melanoma was more than 100 µM.
